Assay results as given in paper PMC5218480 (PLoS ONE, 2017).

Test system: MV-4-11 cells
Assay: Gene expression microarray analysis (Affymetrix PrimeView) and GSEA
Format: cell-based, human
Design: RFU PODN (11730768_x_at) / Fold change /veh PODN (11730768_x_at) / RFU LINC00158 (11744669_a_at) / Fold change /veh LINC00158 (11744669_a_at) / RFU DUSP10 (11751237_a_at) / Fold change /veh DUSP10 (11751237_a_at) / RFU ID3 (11757404_x_at) / Fold change /veh ID3 (11757404_x_at) / RFU PLEKHG5 (11737974_s_at) / Fold change /veh PLEKHG5 (11737974_s_at) / RFU LRRC4B (11730491_at) / Fold change /veh LRRC4B (11730491_at) / RFU GIMAP4 (11747438_a_at) / Fold change /veh GIMAP4 (11747438_a_at) / RFU KRT8 (11758183_x_at) / Fold change /veh KRT8 (11758183_x_at) / RFU CNN1 (11734310_a_at) / Fold change /veh CNN1 (11734310_a_at) / RFU VPS37D (11726825_at) / Fold change /veh VPS37D (11726825_at) / RFU C10orf10 (11716522_x_at) / Fold change /veh C10orf10 (11716522_x_at) / RFU KIR2DL2 /// KIR2DL4 /// KIR2DL5A /// KIR2DL5B /// KIR2DS1 /// KIR2DS2 /// KIR2DS3 /// KIR2DS4 /// KIR3DL3 /// KIR3DL3 /// KIR3DS1 (11738374_at) / Fold change /veh KIR2DL2 /// KIR2DL4 /// KIR2DL5A /// KIR2DL5B /// KIR2DS1 /// KIR2DS2 /// KIR2DS3 /// KIR2DS4 /// KIR3DL3 /// KIR3DL3 /// KIR3DS1 (11738374_at) / RFU C1QL1 (11718748_at) / Fold change /veh C1QL1 (11718748_at) / RFU TMPRSS4 (11747572_a_at) / Fold change /veh TMPRSS4 (11747572_a_at) / RFU HAMP (11756126_x_at) / Fold change /veh HAMP (11756126_x_at) / RFU RNFT2 (11725882_a_at) / Fold change /veh RNFT2 (11725882_a_at) / RFU NR4A2 (11747474_a_at) / Fold change /veh NR4A2 (11747474_a_at) / RFU ABCC12 (11746883_a_at) / Fold change /veh ABCC12 (11746883_a_at) / RFU TMEM136 (11760407_x_at) / Fold change /veh TMEM136 (11760407_x_at) / RFU CLDN22 /// WWC2 (11732394_at) / Fold change /veh CLDN22 /// WWC2 (11732394_at) / RFU HLA-DPB1 (11760878_x_at) / Fold change /veh HLA-DPB1 (11760878_x_at) / RFU SPINT1 (11716480_a_at) / Fold change /veh SPINT1 (11716480_a_at) / RFU GAP43 (11754022_s_at) / Fold change /veh GAP43 (11754022_s_at) / RFU A4GNT (11735810_at) / Fold change /veh A4GNT (11735810_at) / RFU PRB3 (11715151_x_at) / Fold change /veh PRB3 (11715151_x_at) / RFU TUBB4B (11761932_at) / Fold change /veh TUBB4B (11761932_at) / RFU CAPN14 (11732068_a_at) / Fold change /veh CAPN14 (11732068_a_at) / RFU TMCC2 (11721928_a_at) / Fold change /veh TMCC2 (11721928_a_at) / RFU IRGQ (11745062_a_at) / Fold change /veh IRGQ (11745062_a_at) / RFU FAM174B (11720279_a_at) / Fold change /veh FAM174B (11720279_a_at) / RFU TMPRSS4 (11748680_a_at) / Fold change /veh TMPRSS4 (11748680_a_at) / RFU FAM212B (11763350_a_at) / Fold change /veh FAM212B (11763350_a_at) / RFU PLEKHG5 (11743358_a_at) / Fold change /veh PLEKHG5 (11743358_a_at) / RFU ZSCAN30 (11745921_a_at) / Fold change /veh ZSCAN30 (11745921_a_at) / RFU CMKLR1 (11741424_a_at) / Fold change /veh CMKLR1 (11741424_a_at) / RFU LOC101060620 /// MAPK8IP1 (11723275_at) / Fold change /veh LOC101060620 /// MAPK8IP1 (11723275_at) / RFU SPTSSB (11747773_x_at) / Fold change /veh SPTSSB (11747773_x_at) / RFU PRSS12 (11739890_at) / Fold change /veh PRSS12 (11739890_at) / RFU BIN1 (11741810_x_at) / Fold change /veh BIN1 (11741810_x_at) / RFU WNT11 (11732464_a_at) / Fold change /veh WNT11 (11732464_a_at) / RFU C10orf10 (11716521_a_at) / Fold change /veh C10orf10 (11716521_a_at) / RFU C5orf56 (11738089_at) / Fold change /veh C5orf56 (11738089_at) / RFU CYB561 (11721691_x_at) / Fold change /veh CYB561 (11721691_x_at) / RFU ANKRD19P (11752326_a_at) / Fold change /veh ANKRD19P (11752326_a_at) / RFU OR2T12 /// OR2T33 /// OR2T8 (11738714_s_at) / Fold change /veh OR2T12 /// OR2T33 /// OR2T8 (11738714_s_at) / RFU VCAN (11748164_a_at) / Fold change /veh VCAN (11748164_a_at) / RFU JSRP1 (11732532_at) / Fold change /veh JSRP1 (11732532_at) / RFU KRTAP10-11 (11738290_x_at) / Fold change /veh KRTAP10-11 (11738290_x_at) / RFU MYO3A (11730013_a_at) / Fold change /veh MYO3A (11730013_a_at) / RFU EBF3 (11725865_a_at) / Fold change /veh EBF3 (11725865_a_at) / RFU CAMK2N1 (11719241_x_at) / Fold change /veh CAMK2N1 (11719241_x_at) / RFU C5orf56 (11738088_a_at) / Fold change /veh C5orf56 (11738088_a_at) / RFU OLFML3 (11715873_a_at) / Fold change /veh OLFML3 (11715873_a_at) / RFU LOC100653217 /// NTM (11731650_a_at) / Fold change /veh LOC100653217 /// NTM (11731650_a_at) / RFU MAPK11 (11762145_a_at) / Fold change /veh MAPK11 (11762145_a_at) / RFU FIZ1 (11724087_x_at) / Fold change /veh FIZ1 (11724087_x_at) / RFU OASL (11726364_x_at) / Fold change /veh OASL (11726364_x_at) / RFU SOX15 (11748057_x_at) / Fold change /veh SOX15 (11748057_x_at) / RFU CD79A (11719716_a_at) / Fold change /veh CD79A (11719716_a_at) / RFU HIST1H1D (11736915_at) / Fold change /veh HIST1H1D (11736915_at) / RFU CASKIN2 (11723855_a_at) / Fold change /veh CASKIN2 (11723855_a_at) / RFU LOC730098 (11760151_x_at) / Fold change /veh LOC730098 (11760151_x_at) / RFU OR4N2 (11742367_at) / Fold change /veh OR4N2 (11742367_at) / RFU PRRT2 (11749266_a_at) / Fold change /veh PRRT2 (11749266_a_at) / RFU SNX32 (11753110_a_at) / Fold change /veh SNX32 (11753110_a_at) / RFU CDHR5 (11726645_a_at) / Fold change /veh CDHR5 (11726645_a_at) / RFU RCAN1 (11760418_a_at) / Fold change /veh RCAN1 (11760418_a_at) / RFU FAM167A (11723789_a_at) / Fold change /veh FAM167A (11723789_a_at) / RFU FAM26E (11764081_at) / Fold change /veh FAM26E (11764081_at) / RFU ISYNA1 (11749810_s_at) / Fold change /veh ISYNA1 (11749810_s_at) / RFU ACY1 (11761880_at) / Fold change /veh ACY1 (11761880_at) / RFU 11764098_at / Fold change /veh 11764098_at / RFU SAMD14 (11745864_x_at) / Fold change /veh SAMD14 (11745864_x_at) / RFU NPB (11741838_a_at) / Fold change /veh NPB (11741838_a_at) / RFU TMPRSS6 (11731388_a_at) / Fold change /veh TMPRSS6 (11731388_a_at) / RFU KRTAP10-2 (11738614_at) / Fold change /veh KRTAP10-2 (11738614_at) / RFU ARHGAP8 /// PRR5-ARHGAP8 (11727945_x_at) / Fold change /veh ARHGAP8 /// PRR5-ARHGAP8 (11727945_x_at) / RFU KRTAP5-7 /// NADSYN1 (11734609_at) / Fold change /veh KRTAP5-7 /// NADSYN1 (11734609_at) / RFU RASL12 (11751679_a_at) / Fold change /veh RASL12 (11751679_a_at) / RFU CDKN2B (11736163_a_at) / Fold change /veh CDKN2B (11736163_a_at) / RFU PRF1 (11729649_at) / Fold change /veh PRF1 (11729649_at) / RFU, ZNF638 /// ZNF638-IT1 / Fold change vs veh, ZNF638 /// ZNF638-IT1 / RFU, PANK3 / Fold change vs veh, PANK3 / RFU, SH3YL1 / Fold change vs veh, SH3YL1 / RFU, ZEB2 / Fold change vs veh, ZEB2 / RFU, NRIP1 / Fold change vs veh, NRIP1 / RFU, PTTG1IP / Fold change vs veh, PTTG1IP / RFU, CAPN2 / Fold change vs veh, CAPN2 / RFU, MED14 / Fold change vs veh, MED14 / RFU, SNORA58 / Fold change vs veh, SNORA58 / RFU, C1orf63 / Fold change vs veh, C1orf63 / RFU, LRRFIP1 / Fold change vs veh, LRRFIP1 / RFU, NDUFAF7 / Fold change vs veh, NDUFAF7 / RFU, SLC12A2 / Fold change vs veh, SLC12A2 / RFU, IBTK / Fold change vs veh, IBTK / RFU, ESF1 / Fold change vs veh, ESF1 / Fold change vs veh, TMEM50B / RFU, TAOK1 / Fold change vs veh, TAOK1 / RFU, ACBD3 / Fold change vs veh, ACBD3 / RFU, TMA16 / Fold change vs veh, TMA16 / RFU, RWDD3 / Fold change vs veh, RWDD3 / RFU, BCAT1 / Fold change vs veh, BCAT1 / RFU, EDEM3 / Fold change vs veh, EDEM3 / RFU, TMEM33 / Fold change vs veh, TMEM33 / RFU, WDR75 / Fold change vs veh, WDR75 / RFU, AHCTF1 / Fold change vs veh, AHCTF1 / RFU, TFRC / Fold change vs veh, TFRC / RFU, ZDHHC17 / Fold change vs veh, ZDHHC17 / RFU, NOM1 / Fold change vs veh, NOM1 / RFU, ARL8B / Fold change vs veh, ARL8B / RFU, ZBTB11 / Fold change vs veh, ZBTB11 / RFU, TAMM41 / Fold change vs veh, TAMM41 / RFU, KIAA1704 /// LOC100996395 / Fold change vs veh, KIAA1704 /// LOC100996395 / RFU, ING1 / Fold change vs veh, ING1 / RFU, TRMT61B / Fold change vs veh, TRMT61B / RFU, FUBP3 / Fold change vs veh, FUBP3 / RFU, TP53 / Fold change vs veh, TP53 / RFU, TNKS2 / Fold change vs veh, TNKS2 / RFU, ZFP14 / Fold change vs veh, ZFP14 / RFU, ACTR2 / Fold change vs veh, ACTR2 / RFU, PPP3R1 / Fold change vs veh, PPP3R1 / RFU, PIK3R1 / Fold change vs veh, PIK3R1 / RFU, HNRNPA1 / Fold change vs veh, HNRNPA1 / RFU, RNF170 / Fold change vs veh, RNF170 / RFU, ZNF28 / Fold change vs veh, ZNF28 / RFU, RNGTT / Fold change vs veh, RNGTT / RFU, OGT / Fold change vs veh, OGT / RFU, BRD1 / Fold change vs veh, BRD1 / RFU, MARS / Fold change vs veh, MARS / RFU, ZNF655 / Fold change vs veh, ZNF655 / RFU, FAHD1 / Fold change vs veh, FAHD1 / RFU, BDP1 / Fold change vs veh, BDP1 / RFU, LRRCC1 / Fold change vs veh, LRRCC1 / RFU, ARID1A / Fold change vs veh, ARID1A / RFU, ZNF146 / Fold change vs veh, ZNF146 / RFU, ZNF330 / Fold change vs veh, ZNF330 / RFU, GPN3 / Fold change vs veh, GPN3 / RFU, C9orf123 / Fold change vs veh, C9orf123 / RFU, N4BP2L2 / Fold change vs veh, N4BP2L2 / RFU, ARFIP1 / Fold change vs veh, ARFIP1 / RFU, FAM179B / Fold change vs veh, FAM179B / RFU, BCL10 / Fold change vs veh, BCL10 / RFU, UHRF1BP1L / Fold change vs veh, UHRF1BP1L / RFU, BET1 / Fold change vs veh, BET1 / RFU, CNOT2 / Fold change vs veh, CNOT2 / RFU, ZNF268 / Fold change vs veh, ZNF268 / Fold change vs veh, ZNF507 / RFU, DGCR2 / Fold change vs veh, DGCR2 / RFU, WDSUB1 / Fold change vs veh, WDSUB1 / Fold change vs veh, HSP90B1 /// MIR3652 / RFU, ADSS / Fold change vs veh, ADSS / RFU, GK / Fold change vs veh, GK / RFU, ZNF148 / Fold change vs veh, ZNF148 / RFU, TAF9 / Fold change vs veh, TAF9 / RFU, SLC1A5 / Fold change vs veh, SLC1A5 / RFU, SLMO2 / Fold change vs veh, SLMO2 / RFU, ABCC4 / Fold change vs veh, ABCC4 / RFU, LOC101060439 /// RAP1B / Fold change vs veh, LOC101060439 /// RAP1B / RFU, RFX7 / Fold change vs veh, RFX7 / RFU, GTPBP10 / Fold change vs veh, GTPBP10 / RFU, CNEP1R1 / Fold change vs veh, CNEP1R1 / RFU, BIVM-ERCC5 /// ERCC5 / Fold change vs veh, BIVM-ERCC5 /// ERCC5 / RFU, ILF3 / Fold change vs veh, ILF3 / RFU 11762660_at / Fold change /veh 11762660_at / RFU VCAN (11757783_s_at) / Fold change /veh VCAN (11757783_s_at) / RFU DDX43 (11728927_at) / Fold change /veh DDX43 (11728927_at) / RFU KRT8 (11758188_x_at) / Fold change /veh KRT8 (11758188_x_at) / RFU NKD1 (11759106_at) / Fold change /veh NKD1 (11759106_at) / RFU SRD5A1 (11742802_a_at) / Fold change /veh SRD5A1 (11742802_a_at) / RFU TPSAB1 /// TPSB2 (11721975_s_at) / Fold change /veh TPSAB1 /// TPSB2 (11721975_s_at) / RFU GSTM3 (11746129_a_at) / Fold change /veh GSTM3 (11746129_a_at) / RFU IL23R (11737362_x_at) / Fold change /veh IL23R (11737362_x_at) / RFU TMEM51 (11727254_a_at) / Fold change /veh TMEM51 (11727254_a_at) / RFU PIWIL2 (11732686_x_at) / Fold change /veh PIWIL2 (11732686_x_at) / RFU ORM1 (11744905_x_at) / Fold change /veh ORM1 (11744905_x_at) / RFU CCDC152 (11743942_at) / Fold change /veh CCDC152 (11743942_at) / RFU ECM1 (11717891_a_at) / Fold change /veh ECM1 (11717891_a_at) / RFU IL23R (11748794_a_at) / Fold change /veh IL23R (11748794_a_at) / RFU TNFAIP8L3 (11732012_x_at) / Fold change /veh TNFAIP8L3 (11732012_x_at) / RFU MBOAT4 (11741988_at) / Fold change /veh MBOAT4 (11741988_at) / RFU 11764193_at / Fold change /veh 11764193_at / RFU TMEM53 (11763286_at) / Fold change /veh TMEM53 (11763286_at) / RFU MAGEB2 (11727129_at) / Fold change /veh MAGEB2 (11727129_at) / RFU TMEM200A (11744735_a_at) / Fold change /veh TMEM200A (11744735_a_at) / RFU CCDC152 (11751479_a_at) / Fold change /veh CCDC152 (11751479_a_at) / RFU FAM211A (11726209_a_at) / Fold change /veh FAM211A (11726209_a_at) / RFU RGS16 (11746705_a_at) / Fold change /veh RGS16 (11746705_a_at) / RFU VCAN (11755009_s_at) / Fold change /veh VCAN (11755009_s_at) / RFU RHOB (11743442_s_at) / Fold change /veh RHOB (11743442_s_at) / RFU RGS16 (11720943_a_at) / Fold change /veh RGS16 (11720943_a_at) / RFU RGS16 (11720944_at) / Fold change /veh RGS16 (11720944_at) / RFU, VPS4B / Fold change vs veh, VPS4B / RFU, CREB1 / Fold change vs veh, CREB1 / RFU, DNAJC13 / Fold change vs veh, DNAJC13 / RFU, GNAQ / Fold change vs veh, GNAQ / RFU, CDK5R1 / Fold change vs veh, CDK5R1 / RFU, ZRANB3 / Fold change vs veh, ZRANB3 / RFU, CUL4A / Fold change vs veh, CUL4A / RFU, CCNY / Fold change vs veh, CCNY / RFU, UFL1 / Fold change vs veh, UFL1 / RFU, COG3 / Fold change vs veh, COG3 / RFU, DIAPH2 / Fold change vs veh, DIAPH2 / RFU, SKA2 / Fold change vs veh, SKA2 / RFU, AFF3 / Fold change vs veh, AFF3 / RFU, LMF1 / Fold change vs veh, LMF1 / RFU, IPO11 / Fold change vs veh, IPO11 / RFU, DFFB / Fold change vs veh, DFFB / RFU, FOXP1 / Fold change vs veh, FOXP1 / RFU, CARD8 / Fold change vs veh, CARD8 / RFU, STRN3 / Fold change vs veh, STRN3 / RFU, ADK / Fold change vs veh, ADK / RFU, RASSF2 / Fold change vs veh, RASSF2 / RFU, WIPF1 / Fold change vs veh, WIPF1 / RFU, LARP1B / Fold change vs veh, LARP1B / RFU, RASA1 / Fold change vs veh, RASA1 / RFU, RB1 / Fold change vs veh, RB1 / RFU, PPFIA1 / Fold change vs veh, PPFIA1 / RFU, MAT2A / Fold change vs veh, MAT2A / RFU, CCT5 / Fold change vs veh, CCT5 / RFU, WDR92 / Fold change vs veh, WDR92 / RFU, CUX1 / Fold change vs veh, CUX1 / RFU, TTC7A / Fold change vs veh, TTC7A / RFU, TMEM135 / Fold change vs veh, TMEM135 / RFU, DEPTOR / Fold change vs veh, DEPTOR / RFU, CPM / Fold change vs veh, CPM / RFU, DNAJB6 / Fold change vs veh, DNAJB6 / RFU, CACNA2D3 / Fold change vs veh, CACNA2D3 / RFU, DTX4 / Fold change vs veh, DTX4 / RFU, TFCP2 / Fold change vs veh, TFCP2 / RFU, GMCL1 /// GMCL1P1 / Fold change vs veh, GMCL1 /// GMCL1P1 / RFU, AEBP2 / Fold change vs veh, AEBP2 / RFU, SNHG1 /// SNORD22 /// SNORD25 /// SNORD26 /// SNORD27 /// SNORD28 /// SNORD29 /// SNORD31 / Fold change vs veh, SNHG1 /// SNORD22 /// SNORD25 /// SNORD26 /// SNORD27 /// SNORD28 /// SNORD29 /// SNORD31 / Fold change (Aza/veh), C12orf56 (ProbeSet 11735607_a_at) / Fold change (ACY-1035/veh), C12orf56 (ProbeSet 11735607_a_at) / Fold change (Aza/veh), FGFR1OP (ProbeSet 11751329_s_at) / Fold change (ACY-1035/veh), FGFR1OP (ProbeSet 11751329_s_at) / Fold change (Aza/veh), VPS36 (ProbeSet 11739960_a_at) / Fold change (ACY-1035/veh), VPS36 (ProbeSet 11739960_a_at) / RFU SYPL1 (11715823_x_at) / Fold change /veh SYPL1 (11715823_x_at) / RFU IGFBP7 (11715501_s_at) / Fold change /veh IGFBP7 (11715501_s_at) / RFU REEP3 (11722064_at) / Fold change /veh REEP3 (11722064_at) / RFU IGLL1 (11728026_x_at) / Fold change /veh IGLL1 (11728026_x_at): dose or concentration left out as unconfirmed
Settings: MV-4-11 cells, 48 hours

Nc1ncn([C@@H]2O[C@H](CO)[C@@H](O)[C@H]2O)c(=O)n1 [azacitidine]
RFU OASL (11726364_x_at): 34.50 RFU
